Laboratory results taken from patent publication US20250215016A1, “ISOXAZOLE-HETEROCYCLIC DERIVATIVE, PHARMACEUTICAL COMPOSITION AND USE” (SHANGHAI SIMR BIOTECHNOLOGY CO., LTD, priority 2022, published 2025).
Values after ≈ are worked out from the molar mass of the structure shown.

How the values were obtained:
[1] = molecular target: human α2β3γ2 receptor (α2-GABAA receptor) (Homo sapiens (Human), UniProt P18507+P47869); assay: Radioligand (3H-flunitrazepam) competition binding assay, BZD site; α2 vs α5 binding selectivity; conditions: ratio of Ki at α2β3γ2 to Ki at α5β3γ2
Description: α, β and γ subunits are essential for the formation of a complete functional GABAA receptor. In this example, HEK293 cell strains stably expressing human α5-GABAA receptor (comprising α5β3γ2 subunit) and α2-GABAA receptor (comprising α2β3γ2 subunit) were constructed and screened, respectively, by liposome transfection method (Felgner, P. L., et al., Proceedings of the National Academy of Sciences, 1987, 84:7413-7417). The specific subunit protein sequences are as follows: α5 subunit (protein sequence can be found in GenBank accession number: NM_000810.3); α2 subunit (protein sequence can be found in GenBank accession number: NM_000807.4); β3 subunit (protein sequence can be found in GenBank accession number: NM_000814.5); γ2 subunit (protein sequence can be found in GenBank accession number: NM_000816.3).
The above cell lines were subcultured. Amplification of α5β3γ2-HEK293 and α2β3γ2-HEK293 cells was used to test the affinity of the compounds to benzodiazepine site (BZD) of the GABAA receptor. During the passage of α5β3γ2-HEK293 cells, some of the suspended cells were spread on a glass slide pretreated with Poly-D-Lysine for electrophysiological testing.
Flunitrazepam is a non-specific reagent that binds to the BZD site efficiently. The affinity of the compounds to the BZD sites of the human α5β3γ2 and α2β3γ2 receptors can be determined by competing the compound with ^3H-flunitrazepam (isotope ^3H-labeled flunitrazepam) for binding to these two receptors.
Membrane preparation: HEK293 cells stably expressing human α5β3γ2 receptor or α2β3γ2 receptor were collected, suspended in 50 mM Tris-HCl buffer (pH=7.4), homogenized on ice by a homogenizer for 20 seconds 10 times, and centrifuged at 4° C., 1000 g for 10 min. The supernatant was collected, and the above steps were repeated. The supernatant was centrifuged (33800 g; centrifuge purchased from Thermo, rotor model: A27-8×50) at 4° C. for 60 min, and the precipitate was resuspended in Tris buffer (50 mM Tris-HCl, 10 mM MgCl2, 0.5 mM EDTA, 10% glycerol). The precipitate was the cell membrane. Protein content was determined by BCA (Bicinchoninic Acid) method (BCA kit from Pierce (Annoron)). The cell membrane was prepared into 1 ml aliquot and stored at −80° C.
Radioligand competition binding assay: the assay was carried out in a 200 μL system (96-well plate from Agilent) with 100 μL of cell membrane. The concentration of ^3H-flunitazepam (from PerkinElmer, lot: NET567250 UC) was 1 nM and the concentration of test compound was in the range 1×10^−5-10^−6 M. Flumazenil (from Tocris; lot: 1318) was used as a control. 1 μL of 2 mM flumazenil (final concentration 10 μM) was added to the Low signal control well (Low control, LC) and 1 μL of DMSO (from Sigma aldrich, lot: 472301) was added to the High signal control well (High control, HC). The final target membrane protein concentration was 5 μg/well. All test compound sample stocks were 10 mM DMSO solutions. The working concentration of the samples is to dilute all samples with DMSO to 0.2 mM, and then perform 4-fold continuous gradient dilution for a total of 8 concentration gradients. The 96-well plate was sealed with a plate sealing membrane and then incubated on a shaker at room temperature for 1 hour. Meanwhile, GF/C filter plate was soaked with a plate soaking buffer (0.3% PEI, polyethyleneimine, purchased from Sigma aldrich, model: P314, stored at 4° C.) for at least 0.5 hours. After completion of binding incubation, the cells were collected with a cell collector onto the GF/C filter plate and washed four times with a plate washing buffer (50 mM Tris-HCl, pH 7.4, stored at 4° C.). […]

α5-GABAA receptor [2] = molecular target: α5-GABAA receptor (Homo sapiens (Human), UniProt P18507+P31644); assay: Whole-cell patch clamp electrophysiology, inverse regulation activity in α5β3γ2-HEK293 cells; assay type: cell-based; conditions: compound 100 nM; GABA 0.05-0.06 μM (about EC7-8); clamped at −60 mV; read-out: Inverse regulation efficiency to α5-GABAA receptor
Method in brief: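 HEK293 cells expressing α5β3γ2 recorded whole-cell at −60 mV holding potential, GABA 0.05-0.06 μM (about EC7-8) applied, then compound at 100 nM final with GABA. pH 7.4 extracellular, CsCl-based pipette solution. Inverse regulation efficiency = (Itreatment−Igaba)/(Igaba−Iprebaseline)×100%.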

[3] = molecular target: human α5β3γ2 receptor (α5-GABAA receptor) (Homo sapiens (Human), UniProt P18507+P31644); assay: Radioligand (3H-flunitrazepam) competition binding assay, BZD site; conditions: 3H-flunitrazepam 1 nM; HEK293 membranes expressing human α5β3γ2
Method in brief: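 Membranes from HEK293 cells stably expressing human α2β3γ2 or α5β3γ2 (5 μg protein/well) incubated 1 h at room temperature with 1 nM ^3H-flunitrazepam and 8-point 4-fold compound dilutions; nonspecific binding defined with 10 μM flumazenil. Filter-bound radioactivity counted; Ki derived from fitted IC50.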

[4] = Thermodynamic solubility in simulated intestinal fluid (FaSSIF); assay type: physicochemical; conditions: simulated intestinal fluid (FaSSIF), thermodynamic from solid, 37° C., 1000 rpm
Protocol: 50 mM of phosphate buffer, pH=7.4:0.39 g of NaH2PO4·2H2O, 1.4025 g of Na2HPO4 were weighed, placed into an Erlenmeyer flask, dissolved with the addition of 240 ml of water, homogenously mixed, adjusted to pH 7.4 with 10 M NaOH solution, transferred into a 250 ml volumetric flask and diluted with water to the scale.
Simulated intestinal fluid FaSSIF: 54.76 mg of FaSSIF-V2 (Biorelevant, batch. V2FAS-0619-A, lot. V2FAS01) was weighed, and added to 15 ml of buffer, and after dissolution, the solution was made up to 30 ml and left to stand at room temperature for 1 hour for use.
Waters e2695 HPLC high performance liquid chromatography, Mettler XSE105 analytical balance.
Stock solution containing 10 mM of each test compound was formulated using DMSO, diluted into […] standard curve solution using diluent (ACN:PB buffer with a volume ratio of 50:50), and tested by HPLC to obtain a standard curve of concentration vs peak area of each test compound.
Thermodynamic solubility in simulated intestinal fluid (TS in FaSSIF). About 0.3 mg of each sample (test compound) was weighed, added into 1.5 mL of FaSSIF solution, two samples in parallel, shaken at 1000 rpm and 37° C. for 4 hours, and filtered, 1 mL of primary filtrate was discarded, then 400 μL of subsequent filtrate was taken, and tested by using a high performance liquid chromatograph (UV).

α5-GABAA receptor [5] = molecular target: α5-GABAA receptor (Homo sapiens (Human), UniProt P31644); conditions: highest concentration of L-655,708; GABA 1 μM; cited from earlier work

| Selectivity α2 ki/α5 ki [1] [folds] | inhibition at 0.1 µM (α5-GABAA receptor [2]) [%] | Ki [3] [nM] | solubility thermodynamic at 4 h [4] [µg/mL] | SMILES | Inhibition of GABA-induced current (α5-GABAA receptor [5]) [%] |
| --- | --- | --- | --- | --- | --- |
| 51 | 46 | 0.91 |  | Cc1onc(-c2ccc(F)cc2)c1COc1ccc(-c2nnc3n2CCCOC3)nn1 [Compound 21, 3-(6-((3-(4-fluorophenyl)-5-methylisoxazol-4-yl)methoxy)pyridazin-3-yl)-6,7-dihydro-5H,9H-[1,2,4]triazolo[3,4-c][1,4]oxazepane] |  |
|  | 41 | 9.86 | 191 (≈ 426 µM) | CC(=O)N1CCn2c(nnc2-c2ccc(OCc3c(-c4ccc(F)cc4)noc3C)nc2)C1 [Compound 30, 1-(3-(6-((3-(4-fluorophenyl)-5-methylisoxazol-4-yl)methoxy)pyridin-3-yl)-5,6-dihydro-[1,2,4]triazolo[4,3-a]pyrazin-7(8H)-yl)ethan-1-one] |  |
|  |  |  | 32.9 (≈ 67.8 µM) | Cc1onc(-c2ccc(F)cc2)c1COc1ccc(-c2nnc3n2CCN(S(C)(=O)=O)C3)cn1 [Compound 31, 3-(4-fluorophenyl)-5-methyl-4-(((5-(7-(methylsulfonyl)-5,6,7,8-tetrahydro-[1,2,4]triazolo[4,3-a]pyrazin-3-yl)pyridin-2-yl)oxy)methyl)isoxazole] |  |
| 35.8 | 49 | 1.44 |  | Cc1onc(-c2ccc(F)cc2)c1COc1ccc(N2CCn3ccnc3C2)nn1 [Compound 35, 4-(((6-(5,6-dihydroimidazo [1,2-a]pyrazin-7(8H)-yl)pyridazin-3-yl)oxy)methyl)-3-(4-fluorophenyl)-5-methylisoxazole] |  |
| 46.9 | 45 | 3.39 |  | Cc1onc(-c2ccc(F)cc2)c1COc1ccc(N2CCn3c(C)nnc3C2=O)nn1 [Compound 36, 7-(6-((3-(4-fluorophenyl)-5-methylisoxazol-4-yl)methoxy)pyridazin-3-yl)-3-methyl-6,7-dihydro-[1,2,4]triazolo[4,3-a]pyrazin-8(H)-one] |  |
|  |  |  |  | CCOC(=O)c1ncn2c1[C@@H]1CCCN1C(=O)c1cc(OC)ccc1-2 [L-655,708] | 15 |
|  |  |  | 0.9 (≈ 2.58 µM) | Cc1noc(-c2ccc(OCc3c(-c4ccccc4)noc3C)nc2)n1 [WO2009071476, Example 245, reference compound] |  |
